US12568967B2, “Compositions comprising pyridine carboxylate herbicides with synthetic auxin herbicides or auxin transport inhibitors” (priority 2018, dated 2026)
Several values for one entry are separate records, joined by “and”; a condition that tells them apart may be missing. Equal entries are not always repeated.

Experiments:
[1] = test system: Polygonum convolvulus (wild buckwheat, POLCO); assay: Greenhouse postemergence trial POLCO; format: in vivo
Procedure: (§1) Seeds of the desired test plant species were planted in a 90:10% v/v (volume/volume) mixture of PRO-MIX® BX (Premier Tech Horticulture, Quakertown, PA, USA) and PROFILE® GREENS GRADE™ (Profile Products LLC, Buffalo Grove, IL, USA) planting mixture, which typically has a pH of 5.2 to 6.2 and an organic matter content of at least 50 percent, in plastic pots with a surface area of 103.2 square centimeters (cm^2). […] The plants were grown for 7-36 days (d) in a greenhouse with an approximate 14-hour (h) photo-period which was maintained at about 23° C. during the day and 22° C. during the night. Nutrients and water were added on a regular basis and supplemental lighting was provided with overhead metal halide 1000-Watt lamps as necessary. The plants were employed for testing when they reached the second or third true leaf stage.
(§2) Emulsifiable concentrates of each of each pyridine carboxylate herbicide (Compound A or Compound B) were prepared at 100 grams acid equivalent per liter (g ae/L). The emulsifiable concentrates also included a safener, cloquintocet-mexyl, at 120 grams active ingredient per liter (g ai/L), unless otherwise noted below. An aliquot of each emulsifiable concentrate was placed in a 25 mL glass vial and diluted with an aqueous mixture of 1.25% (v/v) ACTIROB® B esterified rapeseed oil (Bayer Crop Science, Research Triangle Park, NC, USA) or MSO® Concentrate with LECI-TECH® methylated soybean oil (Loveland Products, Loveland, CO, USA) to obtain concentrated stock solutions at the highest application rate for each herbicide, based upon a 12 milliliter (mL) application volume at a rate of 187 liters per hectare (L/ha). The concentrated stock solutions were further diluted with an aqueous mixture of 1.25% v/v ACTIROB® B or MSO® Concentrate with LECI-TECH® to obtain stock solutions at reduced application rates for each herbicide. Spray solutions of the herbicide combinations (Compound A or Compound B plus synthetic auxin herbicide or auxin transport inhibitor) were prepared by adding weighed amounts or aliquots of the synthetic auxin herbicide or auxin transport inhibitor to the stock solutions of Compound A or Compound B to form 12-mL spray solutions in two-way combinations.
(§3) The spray solutions were applied to the plant material with an overhead Mandel track sprayer equipped with 8002E nozzles calibrated to deliver 187 L/ha over an application area of 0.503 square meters (m^2) at a spray height of 18 inches (43 centimeters (cm)) above the average plant canopy. Control plants were sprayed in the same manner with the solvent blank. All pyridine carboxylate herbicide (component a) application rates are given as “g ae/ha” and all synthetic auxin herbicide or auxin transport inhibitor (component b) application rates are given as “g ai/ha.”
(§4) The treated plants and control plants were placed in a greenhouse as described above and watered by sub-irrigation to prevent wash-off of the test compounds. After 20-22 d, the condition of the test plants as compared with that of the control plants was determined visually and scored on a scale of 0 to 100 percent where 0 corresponds to no injury and 100 corresponds to complete kill.

[2] = test system: Matricaria chamomilla (wild chamomile, MATCH); assay: Greenhouse postemergence trial MATCH; format: in vivo;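 further: greenhouse plants sprayed at second to third true leaf stage, injury rated by eye 20-22 d later versus solvent-blank controls on 0–100 scale, 0 no injury, 100 complete kill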
[3] = test system: Viola arvensis (field violet, VIOAR); assay: Greenhouse postemergence trial VIOAR; format: in vivo; conditions: for % visual injury Obs: alone; for % visual injury, Obs: applied alone; for % visual injury: c1-3 Compound A 7.5/10/15
Procedure: as §1, §2, §3, §4

[4] = test system: Papaver rhoeas (corn poppy), herbicide-resistant (PAPRH-R); assay: Greenhouse postemergence trial PAPRH-R; format: in vivo; conditions: PAPRH-R; for % visual injury, Obs: applied alone
[5] = test system: Stellaria media (chickweed, STEME); assay: Greenhouse postemergence trial STEME; format: in vivo; conditions: for % visual injury Obs: alone
Procedure: as §1, §2, §3, §4

[6] = test system: Hordeum vulgare (winter barley, HORVW); assay: Greenhouse postemergence crop phytotoxicity HORVW; format: in vivo; conditions: for % visual injury Obs / visual injury, Obs / % visual injury, Obs: HORVW; for % visual injury, Obs: applied alone; for % visual injury (crop phytotoxicity): c1-3 Compound A 7.5/10/15
[7] = test system: Abutilon theophrasti (velvetleaf, ABUTH); assay: Greenhouse postemergence trial ABUTH; format: in vivo; conditions: Compound A 10 g/ha
[8] = test system: Glycine max (volunteer soybean, GLXMA); assay: Greenhouse postemergence trial GLXMA; format: in vivo; conditions: Compound A 10 g/ha
[9] = test system: Alopecurus myosuroides (blackgrass, ALOMY); assay: Greenhouse postemergence trial ALOMY; format: in vivo; conditions: Compound A 10 g/ha
Procedure: as §1
(§5) Emulsifiable concentrates of each of each pyridine carboxylate herbicide (Compound A or Compound B) were prepared at 100 grams acid equivalent per liter (g ae/L). The emulsifiable concentrates also included a safener, cloquintocet-mexyl, at 120 grams active ingredient per liter (g ai/L), unless otherwise noted below. An aliquot of each emulsifiable concentrate was placed in a 25 mL glass vial and diluted with an aqueous mixture of 1.25% (v/v) ACTIROB® B esterified rapeseed oil (Bayer Crop Science, Research Triangle Park, NC, USA) or MSO® Concentrate with LECI-TECH® methylated soybean oil (Loveland Products, Loveland, CO, USA) to obtain concentrated stock solutions at the highest application rate for each herbicide, based upon a 12 milliliter (mL) application volume at a rate of 187 liters per hectare (L/ha). The concentrated stock solutions were further diluted with an aqueous mixture of 1.25% v/v ACTIROB® B or MSO® Concentrate with LECI-TECH® to obtain stock solutions at reduced application rates for each herbicide. Spray solutions of the herbicide combinations (Compound A or Compound B plus synthetic auxin herbicide or auxin transport inhibitor) were prepared by adding weighed amounts or aliquots of the synthetic auxin herbicide or auxin transport inhibitor to the stock solutions of Compound A or Compound B to form 12-mL spray solutions in two-way combinations. […]
as §4

[10] = test system: Avena fatua (wild oat, AVEFA); assay: Greenhouse postemergence trial AVEFA; format: in vivo; conditions: Compound A 10 g/ha
Procedure: as §1, §5, §4

[11] = test system: Lolium multiflorum (Italian ryegrass, LOLMU); assay: Greenhouse postemergence trial LOLMU; format: in vivo; conditions: Compound A 10 g/ha
Procedure: as §1, §2, §3, §4

[12] = test system: Cyperus esculentus (nutsedge, CYPES); assay: Greenhouse postemergence trial CYPES; format: in vivo; conditions: Compound A 10 g/ha
Procedure: as §1, §5, §4

[13] = test system: Lamium purpureum (purple deadnettle, LAMPU); assay: Greenhouse postemergence trial LAMPU; conditions: for % visual injury, Obs: applied alone
[14] = Compound A 10 g/ha, without safener
[15] = c4-5 Fluroxypyr-MHE 100/140, c6-8, c9-11 A 7.5/10/15 + Fluroxypyr-MHE 100, 140 g/ha
[16] = c4-6 Clopyralid 30/60/120, c7-9, c10-12, c13-15 A 7.5/10/15 + Clopyralid 30, 60, 120 g/ha
[17] = c4 Aminopyralid 5, c5-7 A 7.5/10/15 + Aminopyralid 5 g/ha
[18] = c4 Halauxifen-methyl 6, c5-7 A 7.5/10/15 + Halauxifen-methyl 6 g/ha
[19] = Lamium purpureum, post-emergence, read-out: % visual injury Obs

Structure (SMILES): N#CCOC(=O)c1nc(-c2ccc3cc[nH]c3c2F)c(F)c(N)c1Cl [Compound A, cyanomethyl 4-amino-3-chloro-5-fluoro-6-(7-fluoro-1H-indol-6-yl)pyridine-2-carboxylate]
- POLCO Obs (% visual injury) ([1]; Compound A 10 g/ha): 91% and 70%
- POLCO % visual injury Obs ([1]; Compound A 10 g/ha (Table 42)): 91%
- POLCO % visual injury Obs ([1]; Compound A 10 g/ha (Table 43)): 91%
- POLCO % visual injury Obs ([1]; Compound A 10 g/ha (Table 44)): 91%
- POLCO Obs (% visual injury) [1, 14]: 78%
- pest or weed control at […] ([1]; Fallopia convolvulus, post-emergence, POLCO, Compound A 7.5 g/ha, read-out: % visual injury Obs): 85%
- pest or weed control at 10 g/ha ([1]; Fallopia convolvulus, post-emergence, POLCO, Compound A 10 g/ha, read-out: % visual injury Obs): 90%
- pest or weed control at 15 g/ha ([1]; Fallopia convolvulus, post-emergence, POLCO, Compound A 15 g/ha, read-out: % visual injury Obs): 95%
- % visual injury Obs ([1]; POLCO, Compound A 10 g/ha): 90%
- % visual injury, Obs ([1]; POLCO, Compound A 10 g/ha): 91% and 70% and 78%
- visual injury, Obs ([1]; POLCO, Compound A 10 g/ha alone): 90%
- visual injury, Obs ([1]; POLCO, Compound A 15 g/ha alone): 95%
- % visual injury (Obs) ([1]; POLCO, alone 10 g/ha): 86% and 96% and 70%
- % visual injury Obs ([1]; POLCO, alone 10 g/ha): 90%
- % visual injury Obs ([1]; POLCO, alone, 15 g/ha): 95%
- % visual injury, Obs ([1]; POLCO, applied alone, 10 g/ha): 90% and 43%
- % visual injury, Obs ([1]; POLCO, applied alone, 15 g/ha): 95%
- MATCH % visual injury Obs ([2]; Compound A 10 g/ha (Table 42)): 13%
- MATCH % visual injury Obs ([2]; Compound A 10 g/ha (Table 43)): 13%
- MATCH % visual injury Obs ([2]; Compound A 10 g/ha (Table 44)): 13%
- % visual injury, Obs ([2]; MATCH, Compound A 10 g/ha): 30%
- visual injury, Obs ([2]; MATCH, Compound A 10 g/ha alone): 20%
- visual injury, Obs ([2]; MATCH, Compound A 15 g/ha alone): 20%
- % visual injury (Obs) ([2]; MATCH, alone 10 g/ha): 33% and 30%
- % visual injury Obs ([2]; MATCH, alone 10 g/ha): 20%
- % visual injury Obs ([2]; MATCH, alone, 15 g/ha): 20%
- % visual injury, Obs ([2]; MATCH, applied alone, 10 g/ha): 20%
- % visual injury, Obs ([2]; MATCH, applied alone, 15 g/ha): 20%
- pest or weed control at […] ([2]; Matricaria chamomilla, post-emergence, MATCH, Compound A 7.5 g/ha, read-out: % visual injury Obs): 15%
- pest or weed control at 10 g/ha ([2]; Matricaria chamomilla, post-emergence, MATCH, Compound A 10 g/ha, read-out: % visual injury Obs): 20%
- pest or weed control at 15 g/ha ([2]; Matricaria chamomilla, post-emergence, MATCH, Compound A 15 g/ha, read-out: % visual injury Obs): 20%
- visual injury, Obs ([3]; VIOAR, Compound A 10 g/ha alone): 10%
- visual injury, Obs ([3]; VIOAR, Compound A 15 g/ha alone): 15%
- % visual injury Obs ([3]; VIOAR, 10 g/ha): 10%
- % visual injury Obs ([3]; VIOAR, 15 g/ha): 15%
- % visual injury, Obs ([3]; VIOAR, 10 g/ha): 10%
- % visual injury, Obs ([3]; VIOAR, 15 g/ha): 15%
- pest or weed control at […] ([3]; Viola arvensis, post-emergence, VIOAR, Compound A 7.5 g/ha, read-out: % visual injury Obs): 10%
- pest or weed control at 10 g/ha ([3]; Viola arvensis, post-emergence, VIOAR, Compound A 10 g/ha, read-out: % visual injury Obs): 10%
- pest or weed control at 15 g/ha ([3]; Viola arvensis, post-emergence, VIOAR, Compound A 15 g/ha, read-out: % visual injury Obs): 15%
- % visual injury [3, 15]: 5%
- % visual injury [3, 16]: 5%
- % visual injury [3, 17]: 5%
- % visual injury [3, 18]: 5%
- % visual injury Obs ([4]; Compound A 10 g/ha): 90%
- visual injury, Obs ([4]; Compound A 10 g/ha alone): 90%
- visual injury, Obs ([4]; Compound A 15 g/ha alone): 100%
- % visual injury Obs ([4]; alone, 10 g/ha): 90%
- % visual injury Obs ([4]; alone, 15 g/ha): 100%
- % visual injury, Obs ([4]; 10 g/ha): 90%
- % visual injury, Obs ([4]; 15 g/ha): 100%
- pest or weed control at […] ([4]; Papaver rhoeas, post-emergence, Compound A 7.5 g/ha, read-out: % visual injury Obs): 85%
- pest or weed control at 10 g/ha ([4]; Papaver rhoeas, post-emergence, Compound A 10 g/ha, read-out: % visual injury Obs): 90%
- pest or weed control at 15 g/ha ([4]; Papaver rhoeas, post-emergence, Compound A 15 g/ha, read-out: % visual injury Obs): 100%
- STEME Obs (% visual injury) [5, 14]: 88%
- % visual injury, Obs ([5]; STEME, Compound A 10 g/ha): 88%
- visual injury, Obs ([5]; STEME, Compound A 10 g/ha alone): 70%
- visual injury, Obs ([5]; STEME, Compound A 15 g/ha alone): 100%
- % visual injury Obs ([5]; STEME, 10 g/ha): 70%
- % visual injury Obs ([5]; STEME, 15 g/ha): 100%
- % visual injury, Obs ([5]; STEME, applied alone, 10 g/ha): 70%
- % visual injury, Obs ([5]; STEME, applied alone, 15 g/ha): 100%
- pest or weed control at […] ([5]; Stellaria media, post-emergence, STEME, Compound A 7.5 g/ha, read-out: % visual injury Obs): 65%
- pest or weed control at 10 g/ha ([5]; Stellaria media, post-emergence, STEME, Compound A 10 g/ha, read-out: % visual injury Obs): 70%
- pest or weed control at 15 g/ha ([5]; Stellaria media, post-emergence, STEME, Compound A 15 g/ha, read-out: % visual injury Obs): 100%
- % visual injury Obs ([6]; Compound A 10 g/ha): 0%
- visual injury, Obs ([6]; Compound A 10 g/ha alone): 0%
- % visual injury Obs ([6]; Compound A 15 g/ha): 0%
- visual injury, Obs ([6]; Compound A 15 g/ha alone): 0%
- % visual injury Obs ([6]; alone, 10 g/ha): 0%
- % visual injury Obs ([6]; alone, 15 g/ha): 0%
- % visual injury, Obs ([6]; 10 g/ha): 0%
- % visual injury, Obs ([6]; 15 g/ha): 0%
- % visual injury (crop phytotoxicity) [6, 15]: 0%
- % visual injury (crop phytotoxicity) [6, 16]: 0%
- % visual injury (crop phytotoxicity) [6, 17]: 0%
- % visual injury (crop phytotoxicity) [6, 18]: 0%
- % visual injury, Obs ([7]; ABUTH): 75%
- ABUTH Obs (% visual injury) [7]: 78%
- ABUTH Obs (% visual injury) ([7]; without safener): 75%
- GLXMA Obs (% visual injury) ([8]; without safener): 85%
- % visual injury, Obs ([8]; GLXMA): 85%
- % visual injury, Obs ([9]; ALOMY): 0%
- ALOMY Obs (% visual injury) ([9]; without safener): 0%
- % visual injury, Obs ([10]; AVEFA): 0%
- AVEFA Obs (% visual injury) ([10]; without safener): 0%
- LOLMU Obs (% visual injury) [11]: 0%
- LOLMU Obs (% visual injury) ([11]; without safener): 0%
- % visual injury, Obs ([11]; LOLMU): 0%
- % visual injury, Obs ([12]; CYPES): 0%
- CYPES Obs (% visual injury) ([12]; without safener): 0%
- visual injury, Obs ([13]; LAMPU, Compound A 10 g/ha alone): 70%
- % visual injury Obs ([13]; LAMPU, Compound A 15 g/ha): 75%
- visual injury, Obs ([13]; LAMPU, Compound A 15 g/ha alone): 75%
- % visual injury (Obs) ([13]; LAMPU, alone 10 g/ha): 90%
- % visual injury Obs ([13]; LAMPU, alone 10 g/ha): 70%
- % visual injury Obs ([13]; LAMPU, alone, 15 g/ha): 75%
- % visual injury, Obs ([13]; LAMPU, 10 g/ha): 70%
- % visual injury, Obs ([13]; LAMPU, 15 g/ha): 75%
- pest or weed control at 10 g/ha [13, 19]: 70%
- pest or weed control at 15 g/ha [13, 19]: 75%
